Measured values published in PubChem BioAssay (NCI).
“And” between values parts separate entries of the source, which are not always exact repeats. Identical values can stand only once.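 Compound exposure: 48 hours, 5 concentrations, 96-well plates. The concentration for 50% growth inhibition is given as GI50. TGI: total growth inhibition.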

How the values were obtained:
Test in all cases: inhibition of tumour cell growth, NCI panel, 48 h
MDA-N = system: MDA-N
SNB-78 CNS = system: SNB-78 CNS
HOP-18 NSCLC = system: HOP-18 NSCLC
XF 498 CNS = system: XF 498 CNS
LXFL 529 NSCLC = system: LXFL 529 NSCLC
DMS 273 small cell lung = system: DMS 273 small cell lung
M19-MEL melanoma = system: M19-MEL melanoma
DLD-1 colon = system: DLD-1 colon
RXF-631 renal = system: RXF-631 renal

Row | Compound | TGI (MDA-N) | TGI (SNB-78 CNS) | TGI (HOP-18 NSCLC) | TGI (XF 498 CNS) | TGI (LXFL 529 NSCLC) | TGI (DMS 273 small cell lung) | TGI (M19-MEL melanoma) | TGI (DLD-1 colon) | further results
1 | O=S(=O)(NC1CCCCC1)c1ccc2c(c1)OCCOCCOCCOCCO2 | > 100 µM | – | – | – | – | – | – | – | –
2 | C[C@H]1[C@H](C)N1CC(O)Cn1ccnc1[N+](=O)[O-] (stereo partly drawn) | > 100 µM | – | – | – | – | – | – | – | –
3 | O=C(/C=C(\O)C(=O)O)/C=C(\O)c1ccccc1 | – | > 100 µM | > 100 µM | > 100 µM | > 100 µM | > 100 µM | > 100 µM | > 100 µM | GI50 (SNB-78 CNS): > 1 µM; GI50 (XF 498 CNS): > 1 µM; GI50 (LXFL 529 NSCLC): > 1 µM; GI50 (DMS 273 small cell lung): > 1 µM; GI50 (M19-MEL melanoma): > 1 µM
4 | CN1C(=O)c2ccc3ccccc3c2C1=O | > 100 µM | – | – | – | – | – | – | – | –
5 | O=c1cc(-c2ccccn2)[nH]c2cccc(F)c12 | – | > 100 µM | > 100 µM | – | > 100 µM | – | > 100 µM | > 100 µM | TGI (RXF-631 renal): > 100 µM
6 | COc1cc(CNc2nc3c(N)cc(C(F)(F)F)cc3nc2-c2ccccc2)cc(OC)c1OC | – | – | > 100 µM | 86.2 µM | > 100 µM | > 100 µM | > 100 µM | > 100 µM | GI50 (HOP-18 NSCLC): > 100 µM; TGI (RXF-631 renal): > 100 µM
7 | C=C1CC(CC)(CCN2C(=O)c3ccccc3C2=O)OC1=O (stereo not drawn) | – | – | – | 27.1 µM | 27.1 µM | 24.6 µM | – | 80.7 µM | –
8 | COc1ccccc1N=Nc1c(-c2ccccc2)nn(C(=O)CC(=O)Nc2cccc(C)c2)c1-c1ccccc1 | – | > 100 µM | > 100 µM | 61.5 µM | > 100 µM | > 100 µM | > 100 µM | > 100 µM | TGI (RXF-631 renal): > 100 µM
9 | O=[N+]([O-])c1cccc(/C=N/NC2=CS(=O)(=O)C=C2)c1 | > 100 µM | – | – | – | – | – | – | – | –
10 | C=CCn1c(=S)sc2c(C(=O)OCC)c3c(C)cc(C)cn3c2c1=O | – | > 100 µM | – | – | > 100 µM | > 100 µM | > 100 µM | > 100 µM | –
11 | CCOC(=O)N1C/C(=C\c2ccccc2)C(=O)/C(=C/c2ccccc2)C1 | 3.62 µM | > 81.2 µM | > 67.5 µM | 26.6 µM | 12.4 µM | 6.44 µM | 3.22 µM | 7.25 µM | –
12 | CC(C)N(C(=O)c1cccc(C(=O)N(C(C)C)C(C)C)c1)C(C)C | – | > 100 µM | > 100 µM | > 100 µM | > 100 µM | > 100 µM | > 100 µM | > 100 µM | TGI (RXF-631 renal): > 100 µM
13 | N#C/C(=C1\SCC(=O)N1c1ccccc1)c1nc2ccccc2[nH]1 | – | > 100 µM | – | > 100 µM | > 100 µM | > 100 µM | > 100 µM | > 100 µM | –
14 | COC(C)(C)[C@@H](O)[C@H](O)C[C@H](C)C1=C2CC[C@@H]3[C@@]4(C)CC[C@@H](OC(C)=O)C(C)(C)[C@@H]4C[C@@H](OC4OC(COC(C)=O)C(O)C(O)C4O)[C@@]3(C)[C@]2(C)CC1 (stereo partly drawn) | 24.6 µM | – | – | – | – | – | – | – | GI50 (MDA-N): 11.8 µM
15 | COC(=O)CCC(NC(=S)N/N=C(\C)c1ccc[nH]1)C(=O)OC (stereo not drawn) | – | > 100 µM | > 100 µM | > 100 µM | > 100 µM | > 100 µM | > 100 µM | > 100 µM | –
16 | O=c1cccccc1[O-].O=c1cccccc1[O-].O=c1cccccc1[O-].[Eu+3] | – | > 100 µM | – | – | – | > 100 µM | – | > 100 µM | GI50 (SNB-78 CNS): 20.1 µM; GI50 (DMS 273 small cell lung): 16.9 µM; GI50 (DLD-1 colon): 24 µM
17 | [N-]=[N+]=NC(c1cn(C2CC(O)C(CO)O2)c(=O)[nH]c1=O)C(Cl)Br (stereo not drawn) | – | > 100 µM | > 100 µM | – | > 100 µM | > 100 µM | > 100 µM | > 100 µM | –
18 | Cc1c(C(=O)C/C(=N/NC(=O)c2ccccc2)C(=O)Nc2ccc(Cl)cc2)[n+](=O)c2ccccc2n1[O-] | – | > 100 µM | > 100 µM | > 100 µM | > 100 µM | > 100 µM | – | > 100 µM | TGI (RXF-631 renal): > 100 µM
19 | C[N+]1=c2c3cccc4cccc(c(=O)n2CC1)c43 | – | 54.7 µM | 54.1 µM | – | 42.4 µM | 28.8 µM | 31.6 µM | 44 µM | TGI (RXF-631 renal): > 100 µM
20 | COc1cc2c(cc1OC)C(C(=O)O)C(c1ccccc1)N(C)C2=O (stereo not drawn) | – | > 100 µM | > 100 µM | > 100 µM | > 100 µM | – | > 100 µM | > 100 µM | –
21 | N#C/C(=C/C=C/c1ccco1)C(N)=O | > 10 µM | – | – | – | – | – | – | – | –

Row | Compound | TGI (MDA-N) | TGI (SNB-78 CNS) | TGI (HOP-18 NSCLC) | TGI (XF 498 CNS) | TGI (LXFL 529 NSCLC) | TGI (DMS 273 small cell lung) | TGI (M19-MEL melanoma) | TGI (DLD-1 colon) | further results
22 | CC(C)/C=C1\CCC(CN2CCOCC2)C1=O (stereo not drawn) | – | 37.4 µM | 31.8 µM | 33.4 µM | 8.24 µM | – | > 57.2 µM | 8.86 µM | –
23 | OC1(c2ccccc2)C2CC=CC2C1(c1ccccc1)c1ccccc1 (stereo not drawn) | > 100 µM | – | – | – | – | – | – | – | –
24 | O=C(O)C(Cc1cnc[nH]1)N1C(=O)c2ccccc2C1=O (stereo not drawn) | > 100 µM | – | – | – | – | – | – | – | –
25 | O=C1C2C(C(=O)N1c1ccccc1)C1c3ccccc3C2C2C(=O)N(c3ccccc3)C(=O)C21 (stereo not drawn) | – | – | > 100 µM | – | > 100 µM | 53.2 µM | > 100 µM | 8.92 µM | –
26 | Cc1cc(N(CCC#N)S(=O)(=O)c2ccccc2)ccc1/C=C1\N=C(c2ccc(Cl)cc2)OC1=O | – | > 100 µM | – | > 100 µM | > 100 µM | > 100 µM | – | > 100 µM | –
27 | CCCn1c(SCCSc2c3ccccc3c(-c3nc(F)nc(F)n3)n2CCC)c2ccccc2c1-c1nc(F)nc(F)n1 | – | > 100 µM | > 100 µM | – | > 100 µM | > 100 µM | – | 40.4 µM | –
28 | COc1cc(/C=C/c2ccc(C)cc2)cc(OC)c1OC | 2.89 µM | 9.81 µM | > 100 µM | 13.9 µM | > 48.8 µM | 17.6 µM | > 88.9 µM | 20.7 µM | –
29 | O=C1NC(N/N=C\C(O)C(O)C(O)C(O)CO)=N/C1=C/c1ccccc1 (stereo not drawn) | > 100 µM and 31.6 µM | – | – | – | – | – | – | – | GI50 (MDA-N): 89 µM and 15.7 µM and > 100 µM
30 | Cc1ccc(S(=O)(=O)N/N=C(\c2nc3ccc(Cl)cc3[nH]c2=O)C(O)c2ccco2)cc1 (stereo not drawn) | – | – | > 100 µM | – | > 100 µM | > 100 µM | > 100 µM | > 100 µM | –
31 | Cn1cnc(N)c(N=O)c1=O | > 10 µM | – | – | – | – | – | – | – | –
32 | COc1ccc(-c2c(C)c(C(=O)O)nc(-c3ccc4c(O)c(OC)c5c(c4n3)=NC(C)(C)N=5)c2N)c(O)c1OC | 39.9 µM | – | – | – | – | – | – | – | –
33 | CC(C)C1CO[C@]2(C)CCC(=O)N12 (stereo partly drawn) | – | – | > 100 µM | > 100 µM | > 100 µM | – | > 100 µM | > 100 µM | TGI (RXF-631 renal): > 100 µM
34 | C/C(CC(=O)NCCc1ccccc1)=N\NS(=O)(=O)c1ccc(C)cc1 | – | > 100 µM | – | > 100 µM | > 100 µM | > 100 µM | > 100 µM | > 100 µM | TGI (RXF-631 renal): > 100 µM
35 | Cc1cc2c(c(C(N)=O)c1C)-c1cccc(F)c1C2=O | – | > 100 µM | – | > 100 µM | > 100 µM | > 100 µM | > 100 µM | > 100 µM | –
36 | C=CC(=O)N1C/C(=C\c2ccc(Cl)c(Cl)c2)C(=O)/C(=C/c2ccc(Cl)c(Cl)c2)C1 | – | 0.838 µM | 1.38 µM | – | 0.345 µM | 0.315 µM | 0.4 µM | 0.154 µM | TGI (RXF-631 renal): 1.89 µM
37 | CCOC(=O)NC(=O)c1cn(CCN2CCN(C(=O)CNC(=O)CNC(=O)Cn3cc(C(=O)NC(=O)OCC)c(=O)[nH]c3=O)CC2)c(=O)[nH]c1=O | – | > 100 µM | > 100 µM | > 100 µM | > 100 µM | > 100 µM | > 100 µM | > 100 µM | –
38 | O=[N+]([O-])c1ccc(NN=C2CN3CCN(C2)c2ccccc23)c([N+](=O)[O-])c1 | > 100 µM | – | – | – | – | – | – | – | –
39 | O=c1c2c([nH]c3nccn13)CCC2 | > 10 µM | – | – | – | – | – | – | – | –
40 | C1=C(c2ccccc2)C(N2CCOCC2)Oc2ccccc21 (stereo not drawn) | > 100 µM | – | – | – | – | – | – | – | –
41 | CCC[CH2][Sn]([CH2]CCC)([O]C(=O)c1cc(OC)c(OC)cc1OC)[O][Sn]([CH2]CCC)([CH2]CCC)[O]C(=O)c1cc(OC)c(OC)cc1OC | – | 1.51 µM | 3.16 µM | 0.508 µM | 0.214 µM | 1.76 µM | 1.7 µM | 1.34 µM | GI50 (SNB-78 CNS): 0.402 µM; GI50 (HOP-18 NSCLC): 1.78 µM; GI50 (RXF-631 renal): 0.158 µM; TGI (RXF-631 renal): 0.365 µM; GI50 (XF 498 CNS): 0.196 µM; GI50 (LXFL 529 NSCLC): 0.0599 µM; GI50 (DMS 273 small cell lung): 0.762 µM; GI50 (M19-MEL melanoma): 0.347 µM; GI50 (DLD-1 colon): 0.253 µM
